The values that follow come from ChEMBL document CHEMBL4715811, “Antagonists of Orexin Receptors as Potential Treatment of Sleep Disorders, Obesity, Eating Disorders, and Other Neurological and Psychiatric Disorders” (ACS Med Chem Lett, 2016).

One experiment addresses T1, Orexin receptor type 2 (Homo sapiens, UniProt O43614).
T1 sequence (O43614 whole entry): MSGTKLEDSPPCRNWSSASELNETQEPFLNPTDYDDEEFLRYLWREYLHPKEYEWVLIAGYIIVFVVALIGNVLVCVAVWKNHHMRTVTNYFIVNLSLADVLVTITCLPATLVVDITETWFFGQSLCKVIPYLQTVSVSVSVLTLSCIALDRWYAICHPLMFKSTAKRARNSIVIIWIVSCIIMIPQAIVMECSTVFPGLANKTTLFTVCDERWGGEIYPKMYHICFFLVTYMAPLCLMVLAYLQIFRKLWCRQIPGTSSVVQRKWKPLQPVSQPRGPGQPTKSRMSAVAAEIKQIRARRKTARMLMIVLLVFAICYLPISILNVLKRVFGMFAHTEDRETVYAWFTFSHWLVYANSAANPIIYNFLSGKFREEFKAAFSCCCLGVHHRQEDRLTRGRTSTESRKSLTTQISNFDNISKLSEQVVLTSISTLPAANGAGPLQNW
Kind of experiment: Antagonist activity at human OX2R expressed in CHO cells assessed as inhibition of orexin A-induced intracellular Ca2+ release by FLIPR assay. Type of experiment: functional, cell-based.

Experiment [1] deals with T2, Orexin/Hypocretin receptor type 1 (Homo sapiens, UniProt O43613).
T2 sequence (O43613 whole entry): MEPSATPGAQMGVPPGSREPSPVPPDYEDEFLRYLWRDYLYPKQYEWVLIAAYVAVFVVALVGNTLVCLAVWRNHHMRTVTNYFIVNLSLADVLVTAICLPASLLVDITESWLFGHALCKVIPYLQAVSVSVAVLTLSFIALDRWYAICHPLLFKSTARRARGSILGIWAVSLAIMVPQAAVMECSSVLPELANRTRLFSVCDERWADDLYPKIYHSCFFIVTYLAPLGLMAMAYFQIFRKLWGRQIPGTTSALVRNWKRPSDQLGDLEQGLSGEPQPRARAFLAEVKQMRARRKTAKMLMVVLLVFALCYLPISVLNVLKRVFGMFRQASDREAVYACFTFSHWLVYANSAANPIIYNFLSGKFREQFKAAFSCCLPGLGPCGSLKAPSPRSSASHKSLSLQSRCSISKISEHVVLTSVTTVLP
Kind of experiment: Antagonist activity at human OX1R expressed in CHO cells assessed as inhibition of orexin A-induced intracellular Ca2+ release by FLIPR assay. Format: functional, cell-based.

What is called IC50 is the concentration that gives 50% inhibition.

With `C[C@@H]1CC[C@@H](c2nc(CN(C)C)c(-c3ccccc3)o2)CN1C(=O)c1ccccc1-n1nccn1`, the IC50 on Orexin receptor type 2 stood at 983 nM.

For the compound `CC[C@](C)(O)c1nc([C@@H]2CC[C@@H](C)N(C(=O)c3cscc3-n3nccn3)C2)oc1C`, the IC50 came out at 9770 nM in experiment [1] and 18 nM at Orexin receptor type 2.

`CCOc1ccccc1C(=O)N1C[C@H](c2nc(C(C)(C)O)c(C)o2)CC[C@H]1C`: the IC50 on Orexin receptor type 2 came out at 12 nM.
